One block for each compound: values may come before it.
Legend:
[1] = test system: hyperlipidaemia caused by TRITON 1339; assay: test for the hyperlipidaemia caused by TRITON 1339; assay type: in vivo; conditions: rats, Triton test after oral administration for six days, 0.5 millimol per kilogram; for HDL cholesterol: Control 0.7 ± 0.1, Triton 0.8 ± 0.1; for Triglycerides: Control 1 ± 0.3, Triton 10 ± 7; for Total cholesterol: Control 2 ± 0.15, Triton 9 ± 3; for Total lipids: Control 3.5 ± 0.4, Triton 20 ± 10
Experimental: The Table below summarizes the results of the pharmacological studies carried out especially by means of the test for the hyperlipidaemia caused by TRITON 1339. The experimental protocol was that published by J. C. […] et al. (Gaz. Med. France, 3rd inter. coll. 1982, Dijon, 18-22). The tests are performed on groups of 7 rats weighing from 280 to 290 g. The Triton test is carried out after oral administration for six days at a rate of 0.5 millimol per kilogram of body weight. The following lipid parameters are measured: total cholesterol, triglycerides, total lipids and HDL cholesterol.

[2] = target: T1, 3-hydroxy-3-methylglutaryl-CoA reductase (Rattus norvegicus, UniProt P51639); assay: inhibition of 3-hydroxy-3-methylglutaryl-CoA reductase activity (method of Kuroda et al.); assay type: biochemical; conditions: concentration for 50% inhibition of 3-hydroxy-3-methylglutaryl-CoA reductase activity
T1 construct: from tissue
T1 sequence (P51639 1-887): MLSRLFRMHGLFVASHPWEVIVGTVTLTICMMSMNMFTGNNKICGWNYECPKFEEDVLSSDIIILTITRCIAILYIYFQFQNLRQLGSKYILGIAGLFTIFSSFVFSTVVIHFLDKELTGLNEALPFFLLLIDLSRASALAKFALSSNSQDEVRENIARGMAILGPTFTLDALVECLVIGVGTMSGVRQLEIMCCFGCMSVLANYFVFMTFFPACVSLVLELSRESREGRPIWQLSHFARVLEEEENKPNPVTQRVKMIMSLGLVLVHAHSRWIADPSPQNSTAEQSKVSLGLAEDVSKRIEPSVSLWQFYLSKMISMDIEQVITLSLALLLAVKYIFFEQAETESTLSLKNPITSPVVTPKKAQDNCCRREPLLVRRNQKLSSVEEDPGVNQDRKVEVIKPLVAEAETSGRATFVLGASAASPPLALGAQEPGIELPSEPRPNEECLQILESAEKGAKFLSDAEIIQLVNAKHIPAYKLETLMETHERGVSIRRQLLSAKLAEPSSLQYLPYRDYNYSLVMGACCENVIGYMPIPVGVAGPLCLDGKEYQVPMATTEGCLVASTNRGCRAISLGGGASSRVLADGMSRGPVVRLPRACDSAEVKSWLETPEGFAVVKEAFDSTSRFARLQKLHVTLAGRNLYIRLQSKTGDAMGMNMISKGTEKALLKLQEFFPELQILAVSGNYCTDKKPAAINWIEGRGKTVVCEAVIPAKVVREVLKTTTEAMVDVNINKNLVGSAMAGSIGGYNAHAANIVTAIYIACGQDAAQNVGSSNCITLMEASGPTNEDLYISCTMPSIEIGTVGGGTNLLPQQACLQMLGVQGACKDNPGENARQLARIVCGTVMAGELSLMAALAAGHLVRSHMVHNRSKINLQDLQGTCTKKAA
Experimental: The biosynthesis of cholesterol in an isolated enzymatic system or in a cell culture from organs removed from experimental animals is inhibited by limiting the activity of the enzyme 3-hydroxy-3-methylglutaryl-CoA reductase.
The inhibitory activity of the products according to the present invention was determined by the method of Kuroda et al. (Biochemica et Biophysica Acta, vol. 486, pp. 70-81 (1977)), which is a modification of the method of Shapiro et al. (Analytical Biochemistry, vol. 31, pp. 383-390 (1969)). The results are summarized in Table II, where IC50 is the concentration of product in the experimental medium which is necessary to achieve a 50% inhibition of the 3-hydroxy-3-methylglutaryl-CoA reductase activity, expressed in nanomol.

HMG-CoA red. = HMG-CoA red. activity "ex vivo" in liver microsomes after chronic intraperitoneal administration to rats; parameters: Mevalonate formed: unit not given here; conditions: 50 mg/kg for 6 days; for Mevalonate formed: Control 17; for % inhibition: inhibition of HMG-CoA red. activity, Control 0
Experimental: The inhibitory activity of the products according to the present invention was determined by the method of Kuroda et al. (Biochemica et Biophysica Acta, vol. 486, pp. 70-81 (1977)), which is a modification of the method of Shapiro et al. (Analytical Biochemistry, vol. 31, pp. 383-390 (1969)). […] The doses administered were 50 mg/kg for 6 days; six rats were used in each series; they are sacrificed without anaesthesia and the liver microsomes are isolated for the assay, which is performed according to the above-mentioned protocol.

IC50 [2]: 30.1 nM
SMILES: Cc1ccc(C)c(OCCCC(C)(C)C(=O)O[C@H]2C[C@@H](C)CC(C)(C)C2)c1 (relative stereo) [Example 5, (CIS) 3,3,5-TRIMETHYLCYCLOHEXYL 2-(3-(2,5-DIMETHYLPHENOXY)PROPYL)-2-METHYLPROPIONATE]
HDL cholesterol [1]: 1.0 ± 0.3 mmol/L
Triglycerides [1]: 2.0 ± 0.3 mmol/L
Total cholesterol [1]: 5.0 ± 0.8 mmol/L
Total lipids [1]: 3.0 ± 0.4 g/L
Mevalonate formed (HMG-CoA red.): 6.71
% inhibition (HMG-CoA red.): 60%

IC50 [2]: 25.6 nM
SMILES: C[C@@H]1C[C@H](OC(=O)C(C)(C)Oc2ccc(CCNC(=O)c3ccc(Cl)cc3)cc2)CC(C)(C)C1 (relative stereo) [Example 4, (CIS) 3,3,5-TRIMETHYLCYCLOHEXYL 2-(4-(2-(4-CHLOROBENZAMIDO)ETHYL)PHENOXY)-2-METHYLPROPIONATE]
HDL cholesterol [1]: 2.2 ± 0.3 mmol/L
Triglycerides [1]: 2.5 ± 0.5 mmol/L
Total cholesterol [1]: 2.6 ± 0.3 mmol/L
Total lipids [1]: 4.8 ± 0.7 g/L

IC50 [2]: 37.2 nM
SMILES: C[C@@H]1C[C@H](OC(=O)C(C)(C)Oc2ccc(C(=O)c3ccc(Cl)cc3)cc2)CC(C)(C)C1 (relative stereo) [Example 2, (CIS) 3,3,5-TRIMETHYLCYCLOHEXYL 2-(4-(4-CHLOROBENZOYL)PHENOXY)-2-METHYLPROPIONATE]
HDL cholesterol [1]: 2.1 ± 0.5 mmol/L
Triglycerides [1]: 0.5 ± 0.15 mmol/L
Total cholesterol [1]: 3.0 ± 0.4 mmol/L
Total lipids [1]: 3.6 ± 0.2 g/L
Mevalonate formed (HMG-CoA red.): 7.3
% inhibition (HMG-CoA red.): 57%
